Results on 2 compounds are retold here after patent US20200157151A1, “PEPTIDE COMPOUNDS, CONJUGATE COMPOUNDS AND USES THEREOF FOR TREATING INFLAMMATORY DISEASES” (TRANSFERT PLUS, S.E.C., priority 2017, published 2020).

Square brackets hold non-standard residues; d marks the D form. Peptide text beside a SMILES is read from it. Nle = CCCC[C@H](N)C(=O)O

For this test, the target named is T1, Human recombinant Sortilin chimera protein (Homo sapiens, UniProt Q99523).
T1 construct: unnamed fusion partner or tag ('chimera'); purchased R&D Systems 3154-ST
T1 sequence (Q99523 78-755 limits assumed): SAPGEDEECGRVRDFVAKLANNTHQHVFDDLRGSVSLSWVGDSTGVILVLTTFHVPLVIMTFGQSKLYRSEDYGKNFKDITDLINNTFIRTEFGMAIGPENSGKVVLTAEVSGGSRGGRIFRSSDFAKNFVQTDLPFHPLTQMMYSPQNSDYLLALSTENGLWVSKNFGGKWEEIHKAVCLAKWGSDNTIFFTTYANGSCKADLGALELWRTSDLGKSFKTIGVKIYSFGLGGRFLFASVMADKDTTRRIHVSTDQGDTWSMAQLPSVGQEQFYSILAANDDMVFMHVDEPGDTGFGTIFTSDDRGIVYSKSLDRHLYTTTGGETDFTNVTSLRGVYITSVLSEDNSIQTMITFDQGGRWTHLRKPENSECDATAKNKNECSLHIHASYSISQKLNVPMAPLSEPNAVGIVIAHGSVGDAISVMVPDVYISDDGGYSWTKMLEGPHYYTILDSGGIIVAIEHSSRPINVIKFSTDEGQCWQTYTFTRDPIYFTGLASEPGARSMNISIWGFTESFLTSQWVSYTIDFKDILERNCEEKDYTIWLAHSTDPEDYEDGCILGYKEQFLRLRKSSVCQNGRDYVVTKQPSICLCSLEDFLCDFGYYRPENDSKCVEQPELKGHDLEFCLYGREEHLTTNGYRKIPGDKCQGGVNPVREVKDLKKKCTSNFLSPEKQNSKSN
As to the kind of experiment: Surface plasmon resonance (Biacore) interaction with immobilized Sortilin. It counts as binding. The note with it: SPR. The source says: FIG. 12 is schematic representation of real time interaction analysis using Surface Plasmon Resonance (SPR) and a Biacore instrument.
Further tests were made so as to investigate interaction of the peptide compounds of the present disclosure with Sortilin. Such tests were made using real-time surface plasmon resonance (Biacore) (see FIG. 12).
On the technique in general: SPR reads the build-up and loss of mass on a sensor chip optically.

As for `CCCC[C@H](NC(=O)[C@H](CC(N)=O)NC(=O)[C@H](CCCNC(=N)N)NC(=O)[C@@H](NC(=O)CNC(=O)[C@H](C)NC(=O)[C@H](CCCCN)NC(=O)[C@H](C)NC(=O)[C@H](CCCNC(=N)N)NC(=O)[C@@H](NC(=O)CNC(C)=O)C(C)C)C(C)C)C(=O)N[C@@H](Cc1ccccc1)C(=O)N[C@@H](CCCCN)C(=O)N[C@@H](CO)C(=O)N[C@@H](CCC(=O)O)C(=O)N[C@@H](CO)C(=O)N[C@@H](Cc1ccc(O)cc1)C(=O)O` [KBP-106] (Ac-GVRAKAGVRN[Nle]FKSESY-OH; C-terminus assumed), the “Affinity for Sortilin, in words” value (comparison between peptides and Sortilin ligands) is recorded as “better affinity for Sortilin than Neurotensin”.

In general, Kd refers to the constant that tells how readily two partners part at equilibrium. For “RAP: receptor-associated protein, a Sortilin ligand [reference compound]”, where the note is “Sortilin immobilized on CM5 chip, KD calculated with Bia Evaluation software from sensorgrams of FIGS. 13-16, read-out: Affinity (KD)”, the Kd was 4.2 nM.
